The text below walks through data of ChEMBL document CHEMBL5126670, “Structure-Activity Relationships for the N-Me- Versus N-H-Amide Modification to Macrocyclic ent-Verticilide Antiarrhythmics” (ACS Med Chem Lett, 2022).

The source made the active and inactive calls. No cut-off for these calls is given here.

The target in this assay is Ryanodine receptor 2 (Mus musculus) (UniProt E9Q401). As to the kind of experiment: Inhibition of RyR2 in Casq2 gene knockout mouse cardiomyocytes assessed as reduction in calcium sparks frequency at 25 uM incubated for 15 mins by calcium sparks assay. Format: cell-based. The following applies: Cardiomyocyte.
Sequence of Ryanodine receptor 2 (Mus musculus) (E9Q401 whole entry): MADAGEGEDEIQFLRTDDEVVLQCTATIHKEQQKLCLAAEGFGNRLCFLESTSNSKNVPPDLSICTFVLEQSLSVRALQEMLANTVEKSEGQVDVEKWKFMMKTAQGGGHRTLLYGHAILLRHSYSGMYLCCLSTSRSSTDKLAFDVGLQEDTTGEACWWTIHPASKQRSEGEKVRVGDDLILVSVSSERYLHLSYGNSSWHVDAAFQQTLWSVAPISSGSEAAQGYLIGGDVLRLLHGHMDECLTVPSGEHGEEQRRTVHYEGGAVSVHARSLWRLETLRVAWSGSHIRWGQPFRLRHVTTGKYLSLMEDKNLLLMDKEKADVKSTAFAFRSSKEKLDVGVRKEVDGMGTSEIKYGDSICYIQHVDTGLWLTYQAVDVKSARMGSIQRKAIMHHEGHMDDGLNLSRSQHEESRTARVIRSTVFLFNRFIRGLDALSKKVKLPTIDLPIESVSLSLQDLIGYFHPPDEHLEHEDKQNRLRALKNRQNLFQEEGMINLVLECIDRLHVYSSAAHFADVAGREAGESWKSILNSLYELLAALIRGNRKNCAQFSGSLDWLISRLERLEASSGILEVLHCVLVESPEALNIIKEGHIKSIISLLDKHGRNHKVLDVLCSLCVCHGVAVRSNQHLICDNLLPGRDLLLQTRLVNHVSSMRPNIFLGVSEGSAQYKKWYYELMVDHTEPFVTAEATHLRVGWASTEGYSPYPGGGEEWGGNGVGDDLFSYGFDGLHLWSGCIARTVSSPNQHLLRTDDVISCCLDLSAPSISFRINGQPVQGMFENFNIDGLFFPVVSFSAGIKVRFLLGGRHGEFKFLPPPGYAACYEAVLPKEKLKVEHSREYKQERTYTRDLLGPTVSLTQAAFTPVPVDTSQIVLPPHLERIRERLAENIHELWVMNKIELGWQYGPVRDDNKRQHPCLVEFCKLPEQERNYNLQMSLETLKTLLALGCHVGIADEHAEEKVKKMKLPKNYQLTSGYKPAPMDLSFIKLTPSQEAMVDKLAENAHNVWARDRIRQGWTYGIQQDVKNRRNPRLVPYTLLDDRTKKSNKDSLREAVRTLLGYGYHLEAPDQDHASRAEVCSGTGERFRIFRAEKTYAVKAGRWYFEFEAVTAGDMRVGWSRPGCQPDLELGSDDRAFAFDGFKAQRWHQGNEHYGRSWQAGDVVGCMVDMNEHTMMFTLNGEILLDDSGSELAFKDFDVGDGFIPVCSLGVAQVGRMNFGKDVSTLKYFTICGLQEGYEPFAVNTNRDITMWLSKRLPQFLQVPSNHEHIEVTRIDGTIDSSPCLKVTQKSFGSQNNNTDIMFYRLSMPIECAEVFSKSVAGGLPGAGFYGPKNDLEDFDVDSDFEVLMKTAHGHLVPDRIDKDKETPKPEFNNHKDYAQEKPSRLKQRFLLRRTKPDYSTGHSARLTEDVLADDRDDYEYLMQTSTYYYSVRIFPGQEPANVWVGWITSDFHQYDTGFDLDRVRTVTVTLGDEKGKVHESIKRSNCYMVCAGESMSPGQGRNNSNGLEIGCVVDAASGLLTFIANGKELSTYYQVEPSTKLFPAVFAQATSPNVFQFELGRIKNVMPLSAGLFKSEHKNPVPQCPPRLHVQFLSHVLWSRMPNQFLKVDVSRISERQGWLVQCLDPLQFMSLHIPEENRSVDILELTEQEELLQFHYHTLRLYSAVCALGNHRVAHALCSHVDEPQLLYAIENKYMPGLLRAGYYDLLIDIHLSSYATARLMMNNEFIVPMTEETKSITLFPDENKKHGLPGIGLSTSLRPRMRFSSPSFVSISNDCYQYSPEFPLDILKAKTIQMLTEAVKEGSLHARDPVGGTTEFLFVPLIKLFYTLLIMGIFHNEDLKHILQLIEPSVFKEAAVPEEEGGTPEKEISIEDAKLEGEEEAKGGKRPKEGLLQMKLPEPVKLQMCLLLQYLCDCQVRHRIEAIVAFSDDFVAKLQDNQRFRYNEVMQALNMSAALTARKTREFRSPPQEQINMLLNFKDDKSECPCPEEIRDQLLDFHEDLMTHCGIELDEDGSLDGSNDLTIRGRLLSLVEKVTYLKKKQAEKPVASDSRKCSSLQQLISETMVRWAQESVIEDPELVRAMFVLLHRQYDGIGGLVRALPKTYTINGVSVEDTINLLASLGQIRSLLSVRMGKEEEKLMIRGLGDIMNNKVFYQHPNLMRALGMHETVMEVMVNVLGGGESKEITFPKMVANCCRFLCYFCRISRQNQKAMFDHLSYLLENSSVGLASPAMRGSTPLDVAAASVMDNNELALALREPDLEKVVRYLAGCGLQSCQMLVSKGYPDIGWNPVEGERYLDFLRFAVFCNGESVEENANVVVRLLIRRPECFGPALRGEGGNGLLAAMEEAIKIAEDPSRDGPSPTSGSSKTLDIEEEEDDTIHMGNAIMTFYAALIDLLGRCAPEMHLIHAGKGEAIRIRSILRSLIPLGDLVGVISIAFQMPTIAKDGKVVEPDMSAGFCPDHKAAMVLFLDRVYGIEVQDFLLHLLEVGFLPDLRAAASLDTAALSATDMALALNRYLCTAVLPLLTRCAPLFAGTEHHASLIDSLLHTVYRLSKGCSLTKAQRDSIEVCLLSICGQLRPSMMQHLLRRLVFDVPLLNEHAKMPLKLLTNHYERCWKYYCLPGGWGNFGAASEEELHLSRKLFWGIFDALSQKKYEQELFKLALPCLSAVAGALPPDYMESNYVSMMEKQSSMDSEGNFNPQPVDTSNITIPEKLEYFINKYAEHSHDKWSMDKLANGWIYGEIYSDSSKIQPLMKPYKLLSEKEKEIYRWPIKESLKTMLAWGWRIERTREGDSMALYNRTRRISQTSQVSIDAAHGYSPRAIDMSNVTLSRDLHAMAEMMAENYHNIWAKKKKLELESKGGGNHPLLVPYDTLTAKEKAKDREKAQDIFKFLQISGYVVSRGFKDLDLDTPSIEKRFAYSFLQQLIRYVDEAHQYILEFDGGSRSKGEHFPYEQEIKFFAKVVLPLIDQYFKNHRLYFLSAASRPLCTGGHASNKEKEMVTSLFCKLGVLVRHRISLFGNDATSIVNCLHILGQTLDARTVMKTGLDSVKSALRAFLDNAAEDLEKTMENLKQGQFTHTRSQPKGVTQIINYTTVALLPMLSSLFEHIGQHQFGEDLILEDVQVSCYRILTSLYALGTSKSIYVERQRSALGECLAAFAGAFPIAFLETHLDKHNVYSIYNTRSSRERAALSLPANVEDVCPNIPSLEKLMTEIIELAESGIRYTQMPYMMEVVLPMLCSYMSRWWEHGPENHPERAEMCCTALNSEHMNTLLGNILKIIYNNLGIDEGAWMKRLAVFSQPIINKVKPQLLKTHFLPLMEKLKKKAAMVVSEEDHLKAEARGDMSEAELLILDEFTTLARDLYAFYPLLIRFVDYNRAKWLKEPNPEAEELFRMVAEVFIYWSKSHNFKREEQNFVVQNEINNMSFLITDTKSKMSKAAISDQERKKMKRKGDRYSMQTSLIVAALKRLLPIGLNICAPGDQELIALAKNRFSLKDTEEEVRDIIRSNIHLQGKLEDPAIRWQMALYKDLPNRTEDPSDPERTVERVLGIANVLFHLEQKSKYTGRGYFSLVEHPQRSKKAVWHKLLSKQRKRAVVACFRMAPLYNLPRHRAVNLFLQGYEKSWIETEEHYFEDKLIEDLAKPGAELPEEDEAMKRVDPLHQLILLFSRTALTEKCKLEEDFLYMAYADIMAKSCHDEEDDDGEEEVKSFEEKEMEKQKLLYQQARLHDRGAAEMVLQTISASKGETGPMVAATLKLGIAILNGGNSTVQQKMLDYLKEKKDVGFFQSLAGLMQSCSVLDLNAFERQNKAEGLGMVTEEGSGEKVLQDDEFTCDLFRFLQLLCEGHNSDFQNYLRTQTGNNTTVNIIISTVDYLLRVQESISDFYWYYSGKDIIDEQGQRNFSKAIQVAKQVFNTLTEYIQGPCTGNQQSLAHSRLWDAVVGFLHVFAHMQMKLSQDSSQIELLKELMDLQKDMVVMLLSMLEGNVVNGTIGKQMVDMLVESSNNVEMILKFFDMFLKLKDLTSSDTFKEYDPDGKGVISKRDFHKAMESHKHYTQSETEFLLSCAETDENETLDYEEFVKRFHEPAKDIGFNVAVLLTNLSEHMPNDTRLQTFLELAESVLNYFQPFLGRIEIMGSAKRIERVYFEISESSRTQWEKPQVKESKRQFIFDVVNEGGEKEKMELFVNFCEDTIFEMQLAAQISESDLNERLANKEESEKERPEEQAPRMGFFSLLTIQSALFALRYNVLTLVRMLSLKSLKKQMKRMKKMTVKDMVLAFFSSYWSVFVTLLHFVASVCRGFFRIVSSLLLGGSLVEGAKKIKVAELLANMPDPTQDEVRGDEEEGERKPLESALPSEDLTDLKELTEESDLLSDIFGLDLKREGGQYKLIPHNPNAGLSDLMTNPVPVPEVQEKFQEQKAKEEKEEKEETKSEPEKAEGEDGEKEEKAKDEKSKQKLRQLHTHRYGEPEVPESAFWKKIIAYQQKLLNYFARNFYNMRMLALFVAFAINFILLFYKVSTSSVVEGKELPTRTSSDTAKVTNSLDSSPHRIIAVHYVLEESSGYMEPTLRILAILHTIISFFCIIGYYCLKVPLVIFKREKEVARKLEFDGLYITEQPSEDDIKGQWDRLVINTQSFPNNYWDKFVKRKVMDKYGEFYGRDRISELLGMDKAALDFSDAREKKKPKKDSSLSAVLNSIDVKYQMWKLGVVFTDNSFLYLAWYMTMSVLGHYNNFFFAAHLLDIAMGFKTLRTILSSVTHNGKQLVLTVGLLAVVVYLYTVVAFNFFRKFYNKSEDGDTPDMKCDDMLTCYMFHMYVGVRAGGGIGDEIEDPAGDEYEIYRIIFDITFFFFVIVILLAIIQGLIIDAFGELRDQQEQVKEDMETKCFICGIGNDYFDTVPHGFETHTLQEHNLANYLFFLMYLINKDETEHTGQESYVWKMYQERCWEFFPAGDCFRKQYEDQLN
As to `CCCCC[C@@H]1OC(=O)[C@@H](C)NC(=O)[C@H](CCCCC)OC(=O)[C@@H](C)NC(=O)[C@H](CCCCC)OC(=O)[C@@H](C)NC1=O`, the inhibition entry was “Active”.
The entry for `CCCCC[C@@H]1OC(=O)[C@@H](C)N(C)C(=O)[C@H](CCCCC)OC(=O)[C@@H](C)N(C)C(=O)[C@H](CCCCC)OC(=O)[C@@H](C)NC1=O` is “Active”.
The entry for `CCCCC[C@@H]1OC(=O)[C@@H](C)N(C)C(=O)[C@H](CCCCC)OC(=O)[C@@H](C)NC(=O)[C@H](CCCCC)OC(=O)[C@@H](C)NC1=O` is “Active”.
The entry for `CCCCC[C@@H]1OC(=O)[C@@H](C)N(C)C(=O)[C@H](CCCCC)OC(=O)[C@@H](C)N(C)C(=O)[C@H](CCCCC)OC(=O)[C@@H](C)N(C)C1=O` is “Active”.
